Data from patent US10765114B2, “4-amino-6-(pyridyl and 2-substitutedphenyl)-picolinates and 6-amino-2-(pyridyl and 2-substitutedphenyl)-pyrimidine-4-carboxylates and their use as herbicides” (Dow AgroSciences LLC, priority 2013, dated 2020).

Key:
[1] = system: test plant species in Wheat and Barley; test: Post-Emergent Test III (Wheat and Barley), further species of Table 9; type: in vivo; conditions: for Visual Growth Reduction (%) 21 Days After Application, CHEAL: CHEAL lambsquarters (Chenopodium album); for Visual Growth Reduction (%) 21 Days After Application, CHEAL / Visual Growth Reduction (%) 21 Days After Application, GALAP / Visual Growth Reduction (%) 21 Days After Application, STEME / Visual Growth Reduction (%) 21 Days After Application, VIOTR: post-emergent; for GR50, CHEAL / GR50, GALAP / GR50, STEME / GR50, VIOTR: growth reduction of 50%; for GR50, CHEAL / GR80, CHEAL / GR90, CHEAL / GR50, GALAP / GR80, GALAP / GR90, GALAP / GR50, STEME / GR80, STEME / GR90, STEME / GR50, VIOTR / GR80, VIOTR / GR90, VIOTR: probit analysis, 21 days; for GR80, CHEAL / GR80, GALAP / GR80, STEME / GR80, VIOTR: growth reduction of 80%; for GR90, CHEAL / GR90, GALAP / GR90, STEME / GR90, VIOTR: growth reduction of 90%; for Visual Growth Reduction (%) 21 Days After Application, GALAP: GALAP cleavers (Galium aparine); for Visual Growth Reduction (%) 21 Days After Application, STEME: STEME common chickweed (Stellaria media); for Visual Growth Reduction (%) 21 Days After Application, VIOTR: VIOTR wild pansy (Viola tricolor)
Method: Seeds of the desired test plant species were planted in Sun Gro MetroMix® 306 planting mixture, which typically has a pH of 6.0 to 6.8 and an organic matter content of about 30 percent, in plastic pots with a surface area of 103.2 square centimeters (cm^2). When required to ensure good germination and healthy plants, a fungicide treatment and/or other chemical or physical treatment was applied. The plants were grown for 7-36 days in a greenhouse with an approximate 14 h photoperiod which was maintained at about 18° C. during the day and 17° C. during the night. Nutrients and water were added on a regular basis and supplemental lighting was provided with overhead metal halide 1000-Watt lamps as necessary. The plants were employed for testing when they reached the second or third true leaf stage.
A weighed amount, determined by the highest rate to be tested, of each test compound was placed in a 25 mL glass vial and was dissolved in 4 mL of a 97:3 v/v mixture of acetone and DMSO to obtain concentrated stock solutions. […] The concentrated stock solutions obtained were diluted with 20 mL of an aqueous mixture containing acetone, water, isopropyl alcohol, DMSO, Agri-Dex crop oil concentrate, and X-77 surfactant in a 48:39:10:1.5:1.5:0.02 v/v ratio to obtain spray solutions containing the highest application rates. Additional application rates were obtained by serial dilution of 12 mL of the high rate solution into a solution containing 2 mL of 97:3 v/v mixture of acetone and DMSO and 10 mL of an aqueous mixture containing acetone, water, isopropyl alcohol, DMSO, Agri-Dex crop oil concentrate, and X-77 surfactant in a 48:39:10:1.5:1.5:0.02 v/v ratio to obtain ½×, ¼×, ⅛× and 1/16× rates of the high rate. Compound requirements are based upon a 12 mL application volume at a rate of 187 liters per hectare (L/ha). Formulated compounds were applied to the plant material with an overhead Mandel track sprayer equipped with 8002E nozzles calibrated to deliver 187 L/ha over an application area of 0.503 square meters at a spray height of 18 inches (43 cm) above the average plant canopy height. Control plants were sprayed in the same manner with the solvent blank.
The treated plants and control plants were placed in a greenhouse as described above and watered by subirrigation to prevent wash-off of the test compounds. After 21 dAYS, the condition of the test plants as compared with that of the untreated plants was determined visually and scored on a scale of 0 to 100 percent where 0 corresponds to no injury and 100 corresponds to complete kill and presented as indicated in Table A.
By applying the well-accepted probit analysis as described by J. Berkson in Journal of the American Statistical Society, 48, 565 (1953) and by D. Finney in “Probit Analysis” Cambridge University Press (1952), herbicidal injury of a specific compound at various rates can be used to calculate GR10, GR20, GR50, GR80 and GR90 values, which are defined as growth reduction factors that correspond to the effective dose of herbicide required to provide plant growth reduction (GR) of 10 percent, 20 percent, 50 percent, 80 percent and 90 percent, respectively. Probit analysis was applied to data collected from multiple dose rates of individual compounds utilizing the procedures explained in the following examples. The analysis of those dose rates is captured in the following tables.

BRSSS = test: Post-Emergent Test III (Wheat and Barley); type: in vivo; conditions: for Visual Growth Reduction (%) 21 Days After Application, BRSSS: BRSSS oil seed rape (Brassica napus), post-emergent; for GR50, BRSSS: growth reduction of 50%; for GR50, BRSSS / GR80, BRSSS / GR90, BRSSS: probit analysis, 21 days; for GR80, BRSSS: growth reduction of 80%; for GR90, BRSSS: growth reduction of 90%
Method in brief: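 GR10-GR90 values were derived by probit analysis of visual injury (0 = no injury, 100 = complete kill versus untreated), rated 21 days after spraying. Two- to three-true-leaf plants were sprayed at 187 L/ha with serial rates (1× to 1/16×) in aqueous acetone/isopropanol/DMSO with crop oil and X-77. Greenhouse conditions were 18 °C day/17 °C night.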

Row | Structure (SMILES) | Visual Growth Reduction (%) 21 Days After Application, CHEAL ([1]; 17.5 g ai/ha) | Visual Growth Reduction (%) 21 Days After Application, CHEAL ([1]; 35 g ai/ha) | Visual Growth Reduction (%) 21 Days After Application, CHEAL ([1]; 70 g ai/ha) | GR50, CHEAL [1] [g ai/ha] | GR80, CHEAL [1] [g ai/ha] | GR90, CHEAL [1] [g ai/ha] | Visual Growth Reduction (%) 21 Days After Application, GALAP ([1]; 17.5 g ai/ha) | Visual Growth Reduction (%) 21 Days After Application, GALAP ([1]; 35 g ai/ha) | Visual Growth Reduction (%) 21 Days After Application, GALAP ([1]; 70 g ai/ha) | GR50, GALAP [1] [g ai/ha] | GR80, GALAP [1] [g ai/ha] | GR90, GALAP [1] [g ai/ha] | Visual Growth Reduction (%) 21 Days After Application, STEME ([1]; 17.5 g ai/ha) | Visual Growth Reduction (%) 21 Days After Application, STEME ([1]; 35 g ai/ha) | Visual Growth Reduction (%) 21 Days After Application, STEME ([1]; 70 g ai/ha) | GR50, STEME [1] [g ai/ha] | GR80, STEME [1] [g ai/ha] | GR90, STEME [1] [g ai/ha] | Visual Growth Reduction (%) 21 Days After Application, VIOTR ([1]; 17.5 g ai/ha) | Visual Growth Reduction (%) 21 Days After Application, VIOTR ([1]; 35 g ai/ha) | other results
1 | Nc1cc(-c2ccc(Cl)c(Cl)c2Cl)nc(C(=O)O)c1Cl [Compound 93] | C (75-84) | B (85-94) | B (85-94) | 1 | 16 | 80 | D (60-74) | C (75-84) | C (75-84) | 1 | 88 | >140 | E (45-59) | D (60-74) | D (60-74) | 11 | >140 | >140 | E (45-59) | E (45-59) | Visual Growth Reduction (%) 21 Days After Application, VIOTR ([1]; 70 g ai/ha): E (45-59); GR50, VIOTR [1]: 41 g ai/ha; GR80, VIOTR [1]: >140 g ai/ha; GR90, VIOTR [1]: >140 g ai/ha; Visual Growth Reduction (%) 21 Days After Application, BRSSS (BRSSS; 17.5 g ai/ha): A (95-100); Visual Growth Reduction (%) 21 Days After Application, BRSSS (BRSSS; 35 g ai/ha): A (95-100); Visual Growth Reduction (%) 21 Days After Application, BRSSS (BRSSS; 70 g ai/ha): A (95-100); GR50, BRSSS (BRSSS): 0 g ai/ha; GR80, BRSSS (BRSSS): 3 g ai/ha; GR90, BRSSS (BRSSS): 11 g ai/ha
2 | COC(=O)c1nc(-c2ccc(Br)nc2)c(F)c(N)c1Cl [Compound 22, methyl 4-amino-6′-bromo-5-chloro-3-fluoro-[2,3′-bipyridine]-6-carboxylate] | A (95-100) | A (95-100) | A (95-100) | 2 | 6 | 11 | D (60-74) | B (85-94) | A (95-100) | 11 | 24 | 36 | F (30-44) | E (45-59) | D (60-74) | 28 | >140 | >140 | A (95-100) | A (95-100) | Visual Growth Reduction (%) 21 Days After Application, VIOTR ([1]; 70 g ai/ha): A (95-100); GR50, VIOTR [1]: 4 g ai/ha; GR80, VIOTR [1]: 7 g ai/ha; GR90, VIOTR [1]: 9 g ai/ha; Visual Growth Reduction (%) 21 Days After Application, BRSSS (BRSSS; 17.5 g ai/ha): D (60-74); Visual Growth Reduction (%) 21 Days After Application, BRSSS (BRSSS; 35 g ai/ha): B (85-94); Visual Growth Reduction (%) 21 Days After Application, BRSSS (BRSSS; 70 g ai/ha): B (85-94); GR50, BRSSS (BRSSS): 4 g ai/ha; GR80, BRSSS (BRSSS): 20 g ai/ha; GR90, BRSSS (BRSSS): 46 g ai/ha
3 | Cc1c(-c2cc(N)c(Cl)c(C(=O)O)n2)ccc(Cl)c1Cl [Compound 28] | C (75-84) | C (75-84) | B (85-94) | 1 | 30 | >140 | F (30-44) | E (45-59) | D (60-74) | 29 | 120 | >140 | D (60-74) | C (75-84) | B (85-94) | 11 | 31 | 53 | G (0-29) | G (0-29) | Visual Growth Reduction (%) 21 Days After Application, VIOTR ([1]; 70 g ai/ha): G (0-29); GR50, VIOTR [1]: >140 g ai/ha; GR80, VIOTR [1]: >140 g ai/ha; GR90, VIOTR [1]: >140 g ai/ha; Visual Growth Reduction (%) 21 Days After Application, BRSSS (BRSSS; 17.5 g ai/ha): B (85-94); Visual Growth Reduction (%) 21 Days After Application, BRSSS (BRSSS; 35 g ai/ha): B (85-94); Visual Growth Reduction (%) 21 Days After Application, BRSSS (BRSSS; 70 g ai/ha): A (95-100); GR50, BRSSS (BRSSS): 1 g ai/ha; GR80, BRSSS (BRSSS): 5 g ai/ha; GR90, BRSSS (BRSSS): 18 g ai/ha
